Test results: article PMC9886266, “New [1,2,4]triazolo[4,3-c]quinazolines as intercalative Topo II inhibitors: Design, synthesis, biological evaluation, and in silico studies” (PLOS ONE, 2023)

Legend:
HCT-116 cell line = experiment: MTT anti-proliferative assay, HCT-116; assay type: cell-based; conditions: Homo sapiens, 48 h, three independent experiments, read-out: In vitro cytotoxicity IC50, HCT-116
Protocol: In vitro antiproliferative activities of the target molecules were assessed against two human cancer cell lines namely, hepatocellular carcinoma (HepG2) and colorectal carcinoma (HCT-116) using MTT assay.
The anti-proliferative activity of the synthesized compounds was assessed using MTT assay protocol. A panel of human cancer cell lines namely, colorectal carcinoma (HCT-116) and hepatocellular carcinoma (HepG2) was used in this test. Doxorubicin was used as a positive control. The cell lines were got from ATCC (American Type Culture Collection) via the Holding company for biological products and vaccines (VACSERA, Cairo, Egypt). The anti-proliferative activities of the tested compounds were determined quantitatively as follows:
At first, the cells were cultured into a medium of RPMI-1640 with 10% fetal bovine serum. Then, two different antibiotics were added at 37°C in a 5% CO2 incubator: penicillin (100 units/mL) and streptomycin (100 μg/mL). Next, we seeded the cells in a 96-well plate by a density of 1.0 x 10^4 cells / well at 37°C for 48 h under 5% CO2. The synthesized compounds with different concentrations were applied into the cell lines and incubated for 48 h. After 48 h, 20 μl of MTT solution (5mg/mL) was added and incubated for 4 h. Then, DMSO (100 μl) was added into each well to dissolve the formed purple formazan. After that, a colorimetric assay was measured and recorded at absorbance of 570 nm using a plate reader (EXL 800, USA). The relative cell viability in percentage was calculated as (A570 of treated samples/A570 of untreated sample) X 100.
S2: Biological evaluation
S2.1. In vitro cytotoxic activity
The anti-proliferative activity of the synthesized compounds was assessed using MTT assay protocol. A panel of human cancer cell lines namely, colorectal carcinoma (HCT-116) and hepatocellular carcinoma (HepG2) was used in this test. As we targeted the DNA and Topo […]
cell lines were got from ATCC (American Type Culture Collection) via the Holding company for biological products and vaccines (VACSERA, Cairo, Egypt). The anti -proliferative activities of the tested compounds were determined quantitatively as follows:
At first, the cells were cultured into a medium of RPMI-1640 with 10% fetal bovine serum.
Then, two different antibiotics were added at 37 ᵒC in a 5% CO2 incubator: penicillin (100 units/mL) and streptomycin (100 µg/mL). Next, we seeded the cells in a 96 -well plate by a density of 1.0 x 10^4 cells / well at 37 ᵒC for 48 h under 5% CO2. The synthesized compounds with different concentrations were applied into the cell lines and incubated for 48 h. After 48 h, 20 µl of MTT solution (5mg/mL) was added and incubated for 4 h. Then, DMSO (100 µl) was added into each well to dissolve the formed purple formazan. After that, a colorimetric assay was measured and recorded at absorbance of 570 nm using a plate reader (EXL 800, USA). The relative cell viability in percentage was calculated as (A570 of treated samples/A570 of untreated sample) X 100. […]

[1] = biological target: Topo II α and supercoiled pBR322 DNA (Homo sapiens, UniProt P11388); experiment: Topo II-mediated DNA cleavage assay; assay type: biochemical
Protocol: The Topo II inhibitors may act through two pathways. Firstly, it can stabilize the Topo II-DNA covalent complexes leading to the formation of linear DNA (Topo II poisons). Secondly, it can block the catalytic site of Topo II (Topo II catalytic inhibitors).
Topo II-mediated DNA cleavage assay was carried out according the reported method by Huang et al. as follows.
Topo II α (10 U), supercoiled pBR322 DNA (0.2 μg) and compound 16 at concentration of 5 and 10 μM were added in Topo II buffer ([…], pH 8.0, 150 mM NaCl, 10 mM MgCl2 2mM ATP, 0.5mM dithiothreitol, and 30 μg/mL BSA) of 20 μL volume. After incubating for 6 min at 37°C and then respectively adding 2 μL of 10% SDS, 2 μL of 250mM NaEDTA, pH 8.0, 2 μL of 0.8 mg/mL Proteinase K. Following reactions were incubated for another 30 min at 45°C. Samples were mixed with 4 μL of 6×loading buffer, heated at 70°C for 2 min and subjected to electrophoresis in a 1% agarose gel in 1×TAE buffer (30 mL) with 1 μL Gel Red. Finally, DNA bands were visualized by using UV light, photographed by using Alpha Innotech digital imaging system.
After that, the DNA was run on 1% agarose gel in BioRad gel electrophoresis system for 1–2 h followed by staining with GelRedTM stain for 2 h and destained for 15 min with TAE buffer. The gel was imaged via BioRad’s Gel DocTMEZ system. Both supercoiled and linear strands DNA were incorporated in the gel as markers for DNA-Topo II intercalators. The results of IC50 values were calculated using the GraphPad Prism version 7. Each reaction was performed in duplicate, and at least three independent determinations of each IC50 were made.
S2.3. DNA/Methyl Green Assay […]
methyl green dye method described by Burres et al. Activated Calf Thymus DNA (Merk, Germany) was treated with methyl green (Merk, Germany), then the synthesized compounds were applied to displace the methyl green dye, producing equivalent color. The results were reported […]
S2.4. Topo II-mediated DNA cleavage assay […]

Sequence of Topo II α and supercoiled pBR322 DNA (P11388 whole entry): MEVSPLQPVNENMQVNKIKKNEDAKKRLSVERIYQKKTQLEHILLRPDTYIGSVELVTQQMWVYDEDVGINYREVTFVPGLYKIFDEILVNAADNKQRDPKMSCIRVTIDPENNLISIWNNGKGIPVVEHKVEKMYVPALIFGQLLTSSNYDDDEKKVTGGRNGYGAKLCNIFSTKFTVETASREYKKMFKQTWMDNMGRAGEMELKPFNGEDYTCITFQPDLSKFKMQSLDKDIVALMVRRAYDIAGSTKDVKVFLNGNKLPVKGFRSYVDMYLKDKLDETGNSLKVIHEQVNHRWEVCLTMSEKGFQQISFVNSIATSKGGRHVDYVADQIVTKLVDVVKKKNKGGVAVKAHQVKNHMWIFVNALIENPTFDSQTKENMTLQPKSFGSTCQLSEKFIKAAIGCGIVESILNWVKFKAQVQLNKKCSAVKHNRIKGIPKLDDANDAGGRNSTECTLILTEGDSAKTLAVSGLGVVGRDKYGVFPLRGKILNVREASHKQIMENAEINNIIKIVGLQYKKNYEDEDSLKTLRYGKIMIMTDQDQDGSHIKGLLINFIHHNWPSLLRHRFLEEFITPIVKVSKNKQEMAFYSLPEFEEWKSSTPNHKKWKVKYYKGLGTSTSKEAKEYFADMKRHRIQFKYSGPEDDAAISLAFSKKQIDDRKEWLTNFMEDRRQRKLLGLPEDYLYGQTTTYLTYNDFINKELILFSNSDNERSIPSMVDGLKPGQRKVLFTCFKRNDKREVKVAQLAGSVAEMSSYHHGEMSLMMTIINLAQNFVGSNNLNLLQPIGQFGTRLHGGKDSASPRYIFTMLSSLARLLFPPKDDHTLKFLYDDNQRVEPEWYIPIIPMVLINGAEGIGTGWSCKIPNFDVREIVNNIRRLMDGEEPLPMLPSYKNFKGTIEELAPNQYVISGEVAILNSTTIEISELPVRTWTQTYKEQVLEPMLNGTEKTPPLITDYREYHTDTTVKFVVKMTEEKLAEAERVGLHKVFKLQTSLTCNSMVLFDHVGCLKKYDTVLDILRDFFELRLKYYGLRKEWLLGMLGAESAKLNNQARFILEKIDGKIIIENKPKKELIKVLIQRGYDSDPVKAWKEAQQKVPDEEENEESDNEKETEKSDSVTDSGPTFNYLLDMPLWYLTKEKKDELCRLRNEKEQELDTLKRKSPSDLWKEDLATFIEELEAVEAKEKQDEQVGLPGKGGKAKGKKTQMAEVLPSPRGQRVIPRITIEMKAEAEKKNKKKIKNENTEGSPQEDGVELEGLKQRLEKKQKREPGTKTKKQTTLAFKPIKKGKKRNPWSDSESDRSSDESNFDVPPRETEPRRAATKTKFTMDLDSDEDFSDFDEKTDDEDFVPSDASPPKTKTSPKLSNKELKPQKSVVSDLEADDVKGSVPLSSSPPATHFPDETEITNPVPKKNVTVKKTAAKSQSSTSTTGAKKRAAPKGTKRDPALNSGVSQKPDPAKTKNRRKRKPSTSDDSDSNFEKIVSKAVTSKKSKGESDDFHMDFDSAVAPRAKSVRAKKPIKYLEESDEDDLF

CCCNc1nc2ccccc2c2nnc(C(F)(F)F)n12 [Compound 16, N-Propyl-3-(trifluoromethyl)-[1,2,4]triazolo[4,3-c]quinazolin-5-amine]
IC50 (HCT-116 cell line): 2440 ± 100 nM | Effect on relaxation of supercoiled DNA by Topo II ([1]; 5 μM): induced relaxation for the DNA | Effect on relaxation of supercoiled DNA by Topo II ([1]; 10 μM): blocked the formation of relaxed DNA | Formation of linear DNA ([1]; all concentrations (5 and 10 μM)): the linear DNA was not formed
